Data reported in ChEMBL document CHEMBL1129684, “New steroidal diazo ketones as potential photoaffinity labeling reagents for the mineralocorticoid receptor: synthesis and biological activities” (J Med Chem, 1996).

Experiments:
[1] = target: T1, Mineralocorticoid receptor (Homo sapiens, UniProt P08235); assay: Affinity for recombinant Mineralocorticoid receptor; details: read-out: Kd app
T1 sequence (P08235 whole entry): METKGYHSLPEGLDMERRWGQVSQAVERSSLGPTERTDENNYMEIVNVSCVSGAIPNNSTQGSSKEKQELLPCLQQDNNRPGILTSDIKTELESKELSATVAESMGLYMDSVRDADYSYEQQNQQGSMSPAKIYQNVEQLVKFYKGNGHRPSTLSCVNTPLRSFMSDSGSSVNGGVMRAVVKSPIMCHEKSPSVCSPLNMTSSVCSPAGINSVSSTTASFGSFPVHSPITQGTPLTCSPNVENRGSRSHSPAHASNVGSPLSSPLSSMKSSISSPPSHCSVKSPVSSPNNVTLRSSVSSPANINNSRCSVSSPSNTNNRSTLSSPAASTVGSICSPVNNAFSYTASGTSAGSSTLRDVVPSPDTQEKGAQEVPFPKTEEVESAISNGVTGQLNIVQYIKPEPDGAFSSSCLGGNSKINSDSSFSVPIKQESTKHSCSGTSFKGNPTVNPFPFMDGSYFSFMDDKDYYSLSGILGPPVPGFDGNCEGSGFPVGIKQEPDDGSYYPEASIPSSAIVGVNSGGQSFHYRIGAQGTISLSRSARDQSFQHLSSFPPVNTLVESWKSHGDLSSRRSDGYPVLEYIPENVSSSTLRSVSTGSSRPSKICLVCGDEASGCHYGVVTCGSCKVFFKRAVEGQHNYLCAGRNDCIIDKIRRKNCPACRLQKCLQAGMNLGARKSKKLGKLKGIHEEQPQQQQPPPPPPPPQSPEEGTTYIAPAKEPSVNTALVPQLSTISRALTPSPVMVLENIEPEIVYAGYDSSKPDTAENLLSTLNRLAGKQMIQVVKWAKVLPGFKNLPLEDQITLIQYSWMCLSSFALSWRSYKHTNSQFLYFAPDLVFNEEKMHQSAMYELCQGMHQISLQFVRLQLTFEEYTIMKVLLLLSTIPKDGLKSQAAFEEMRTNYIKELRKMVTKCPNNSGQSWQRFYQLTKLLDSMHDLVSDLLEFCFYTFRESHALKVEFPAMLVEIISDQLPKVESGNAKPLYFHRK

[2] = target: T1, Mineralocorticoid receptor; assay: Inhibition of 10e-9 M aldosterone activity in CV-1 cells expressing mineralocorticoid receptor; assay type: functional, cell-based
[3] = target: T2, Mineralocorticoid receptor (Homo sapiens) (UniProt P08235); details: CV-1
T2 sequence (whole entry): T1 sequence (P08235 whole entry)
Description: Transcriptional activation activity in CV-1 cells expressing mineralocorticoid receptor

Question: Which Kd [1] does the source give for `CC(=O)C1CC[C@H]2[C@@H]3CCC4=CC(=O)CCC4(C)[C@H]3CCC12C(=O)[CH-][N+]#N` (stereo partly specified) here?
Answer: 0.02 µM

Question: And the IC50 [2]?
Answer: 0.7 µM

Question: What does the source list for `C[C@@H](O)C1CC[C@H]2[C@@H]3CCC4=CC(=O)CCC4(C)[C@H]3CCC12C(=O)C=[N+]=[N-]` (stereo partly specified)?
Answer: Kd [1]: 0.02 µM; IC50 [2]: 0.9 µM

Question: Which results are given for `CC12CCC(=O)C=C1CCC1C2CCC2(C)C(C(=O)C=[N+]=[N-])CCC12` (stereo unspecified)?
Answer: Kd [1]: 0.00074 µM; ED50 [3]: 0.006 µM
